Consider two molecules from patent publication US20250161477A1, “NOVEL METHODS OF THERAPY” (BIVICTRIX LIMITED, priority 2022, published 2025).

The subject of assay [1] is Human CD34+ progenitor cells. The assay is described as follows: Colony forming unit assay: differentiation of healthy CD34+ progenitor cells to myeloid CD33+ cells.
Procedure: Methocult was thawed at 4° C. overnight. Methocult was shaken and allowed to stand at room temperature until all the bubbles had dispersed and aliquoted into 3 mL aliquots. A 6-point dose titration was prepared for each antibody in PBS to achieve the following final concentrations: 10, 3, 1, 0.1, 0.01 and 0 nM. Enough of each dilution was prepared to test activity across duplicate wells. Each titration was pipetted into a 1.5 mL tube. CD34+ cells were thawed at 37° C. and suspended in 2% FBS IMDM. 300 μL of suspension containing 3000 CD34+ cells were pipetted into each 1.5 mL tube containing antibody titration and the solution gently was mixed by pipetting. […] The total volume of antibody dilution added to the cells was 30 μL in all conditions. The cell suspension/conjugate mix was pipetted into a 3 mL aliquot of Methocult, vortexed for 5 seconds and allowed to stand at room temperature until the bubbles had disappeared. Using an 18-gauge blunt needle and 6 mL syringe, 1 mL of cell/conjugate/Methocult mix was transferred to a well of a Smart dish and each condition was tested across duplicate wells. Each plate was rocked to ensure the Methocult covered the entire well surface evenly and then placed in a 37° C., 5% CO2 incubator. The colonies were counted on day 9 and day 14 and the data plotted in Excel.
The next assay addresses human CD33 (human) (UniProt P20138). The experiment in a line: cell-based or functional assay.
The target in the next assay is human CD56 (human) (UniProt P13591). The experiment in a line: cell-based or functional assay.
human CD56 (human), sequence (P13591 other isoform, or with tags, fused parts or gaps limits assumed): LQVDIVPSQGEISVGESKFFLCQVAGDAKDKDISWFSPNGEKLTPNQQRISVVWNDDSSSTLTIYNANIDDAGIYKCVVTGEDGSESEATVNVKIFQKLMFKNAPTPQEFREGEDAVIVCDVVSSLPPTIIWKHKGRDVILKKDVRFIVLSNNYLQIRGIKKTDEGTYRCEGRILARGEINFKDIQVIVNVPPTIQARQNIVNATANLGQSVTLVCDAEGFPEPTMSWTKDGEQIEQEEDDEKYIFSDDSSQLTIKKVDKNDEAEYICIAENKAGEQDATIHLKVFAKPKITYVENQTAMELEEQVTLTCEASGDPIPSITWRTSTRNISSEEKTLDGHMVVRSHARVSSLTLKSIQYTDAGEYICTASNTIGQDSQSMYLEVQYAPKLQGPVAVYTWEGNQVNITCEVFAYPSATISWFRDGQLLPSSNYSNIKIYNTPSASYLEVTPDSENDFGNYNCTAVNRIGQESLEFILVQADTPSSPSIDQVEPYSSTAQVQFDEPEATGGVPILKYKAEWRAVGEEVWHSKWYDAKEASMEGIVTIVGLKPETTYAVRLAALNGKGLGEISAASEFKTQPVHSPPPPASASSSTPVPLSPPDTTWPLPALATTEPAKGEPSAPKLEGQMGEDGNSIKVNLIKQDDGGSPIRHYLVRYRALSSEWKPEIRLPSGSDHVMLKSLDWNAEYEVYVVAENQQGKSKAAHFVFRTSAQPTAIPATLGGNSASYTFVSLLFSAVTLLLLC

human CD33 (human), sequence (P20138 18-364 R69G limits assumed): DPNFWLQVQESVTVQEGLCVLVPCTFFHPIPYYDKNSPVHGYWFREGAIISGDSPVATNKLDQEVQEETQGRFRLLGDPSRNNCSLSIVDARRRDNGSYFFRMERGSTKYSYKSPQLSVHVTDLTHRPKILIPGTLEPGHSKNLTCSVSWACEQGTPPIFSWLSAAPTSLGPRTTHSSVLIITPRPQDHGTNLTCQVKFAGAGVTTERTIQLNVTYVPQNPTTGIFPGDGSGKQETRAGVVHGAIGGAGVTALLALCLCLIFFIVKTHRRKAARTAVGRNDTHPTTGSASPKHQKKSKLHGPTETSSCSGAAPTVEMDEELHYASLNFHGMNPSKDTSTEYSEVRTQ

As for “GEMTUZUMAB: Gemtuzumab (In House), CD33 monospecific antibody, unconjugated”, the “Av. % of Colonies Surviving at 10 nM vs Control” value was found to be 102.33% in assay [1] (9 days of incubation, Experiment 1); 113.3% in assay [1] (9 days of incubation, Experiment 2); 100.5% in assay [1] (14 days of incubation, Experiment 1); 82.8% in assay [1] (14 days of incubation, Experiment 2).

B1: BVX04-a0094-AB4A-1 (CD33xCD56 Bi-Fab ADC) (bispecific antibody, not shown: large carriers)
heavy 1: EVQLVQSGAEVKKPGSSVKVSCKASGYTITDSNIHWVRQAPGQSLEWIGYIYPYNGGTDYNQKFKNRATLTVDNPTNTAYMELSSLRSEDTAFYYCVNGNPWLAYWGQGTLVTVSS
light 1: DIQLTQSPSTLSASVGDRVTIICRASESLDNYGIRFLTWFQQKPGKAPKLLMYAASNQGSGVPSRFSGSGSGTEFTLTISSLQPDDFATYYCQQTKEVPWSFGQGTKLEIK
heavy 2: EVQLVQSGAEVKKPGSSVKVSCKASGGTFTGYYMHWVRQAPGQGLEWMGWINPNSGGTNYAQKFQGRVTMTRDTSISTAYMELSRLRSDDTAVYYCARDLSSGYSGYFDYWGQGTLVTVSS
light 2: DVVMTQSPLSLPVTPGEPASISCRSSQSLLHSNGYNFLDWYLQKPGQSPQLLIYLGSNRASGVPDRFSGSGSGTDFTLKISRVEADDVGVYYCMQSLQTPWTFGHGTKVEIK
In the assay with human CD33 (human), B1 showed a Mean IC50, cell kill assay (WST-1, 96 h) on KASUMI-3 cells (CD33+/CD56+) of 61 pM and a Mean IC50, cell kill assay (WST-1, 96 h) on SET-2 cells (CD33+/CD56-) above 30000 pM. In the assay with human CD56 (human), this molecule returned a Mean IC50, cell kill assay (WST-1, 96 h) on KASUMI-3 cells (CD33+/CD56+) of 61 pM and a Mean IC50, cell kill assay (WST-1, 96 h) on KE-37 cells (CD33-/CD56+) above 30000 pM.
